Values joined by “and” are separate entries in the source; they are usually repeats but may differ in a detail not shown here. Identical values can stand only once.
Experiments:
[1] = system: anterior segment of the eye; assay: Ocular Irritation Test-2: McDonald-Shadduck method, lens observation, histopathological examination; assay type: in vivo, Japanese White rabbit; parameters: key to Irritation Score of anterior segment of the eye: Discharge / Irritation Score of anterior segment of the eye: Anterior chamber flare / Irritation Score of anterior segment of the eye: Light reflex / Irritation Score of anterior segment of the eye: Iris / Irritation Score of anterior segment of the eye: Corneal opacity / Irritation Score of anterior segment of the eye: Angiogenesis / Irritation Score of anterior segment of the eye: Corneal epithelial disorder / Lens / Histopathological examination of the eye / Irritation Score of anterior segment of the eye: Conjunctival hyperemia / Irritation Score of anterior segment of the eye: Conjunctival edema: +0.5: very slight; +1: slight; +2: moderate; +3: severe; —: No noteworthy findings; settings: for Histopathological examination of the eye / Irritation Score of anterior segment of the eye: Angiogenesis / Irritation Score of anterior segment of the eye: Anterior chamber flare / Irritation Score of anterior segment of the eye: Conjunctival edema / Irritation Score of anterior segment of the eye: Conjunctival hyperemia / Irritation Score of anterior segment of the eye: Corneal epithelial disorder / Irritation Score of anterior segment of the eye: Corneal opacity / Irritation Score of anterior segment of the eye: Discharge / Irritation Score of anterior segment of the eye: Iris / Irritation Score of anterior segment of the eye: Light reflex / Lens: 50 μL/eye twice per day for 2 weeks
Method: Compound 1 was stirred with the addition of Vehicle C to give a 0.3% (w/v) solution, and the resulting solution was diluted with Vehicle C to give a 0.1% (w/v) solution. Further, the resulting 0.1% (w/v) solution was diluted with. Vehicle C to give a 0.03% (w/v) solution.
0.03% (w/v), 0.1% (w/v), and 0.3% (w/v) Compound 1 eye drops were each instilled into the left eye of a Japanese White rabbit at a dose of 50 μL/eye with pipette twice per day at a 6-hour interval for 2 weeks. One hour after the final instillation, ocular irritation of anterior segment of the eye was evaluated using a slit lamp according to the McDonald-Shadduck method, and the lens was observed. At the end of the treatment period, histopathological examination of the eye was performed. The contralateral eye was untreated.
The ocular irritation of anterior segment of the eye was scored according to the following criteria:
+1: slight; +2: moderate; +3: severe.

lens elasticity = assay: Pharmacological Test-4: lens elasticity, once-daily instillation for 2 weeks; assay type: in vivo, C57BL/6J mice; settings: for Lens elasticity improvement: once per day for 14 days, 8-month-old mice
Method: The effect of once-daily instillation of Compound 1 for 2 weeks on the lens elasticity was examined.
Compound 1 was stirred with the addition of Vehicle A to give a 0.3% (w/v) emulsion, and the emulsion was diluted with the diluent to give a 0.1% (w/v) emulsion. Further, the resulting 0.1% (w/v) emulsion was diluted with the diluent to give a 0.03% (w/v) emulsion. Further, the resulting 0.03% (w/v) emulsion was diluted with the diluent to give a 0.01% (w/v) emulsion.
EV06 was sonicated with the addition of Vehicle A to give a 1.5% (w/v) solution, which was used for comparison to Compound 1 sample.
1) Each test sample (2.5 μL/eye) was instilled into the right eye of 8-month-old C57BL/6J mice with a Pipetman once per day (around 9:00) for 14 days. 2) After the final instillation, the mice were euthanized by carbon dioxide inhalation, and then the eyeballs were extracted and rinsed with Hank's balanced salt solution (HESS). 3) The sclera near the optic nerve was cut with a razor, the lens was removed through the incision, and the removed lens was immersed in HESS. 4) The lens was placed on a glass slide, and an all-in-one fluorescence microscope BZ-9000 (Keyence) was used to capture an image of the lens (Image a). 5) Next, one cover glass (Corning^(registered trade mark) 22×22 mm Square) was placed on the lens, and an image in which the thickness of the lens changed due to the weight was similarly captured (Image b). 6) A change in the lens diameter was calculated from the following Equation 1 wherein the lens diameter of Image a is subtracted from the lens diameter of Image b. Then, the lens elasticity improvement of each sample group compared with the vehicle control group was calculated from Equation 2 described below. The mean value of the vehicle control group was based on 5 eyes, the mean value of each of the sample groups of compound 1 and EV06 was based on 10 eyes.
Change in lens diameter=Lens diameter in Image b of each test sample−Lens diameter in Image a of each test sample (Equation 1)
Lens elasticity improvement of each sample group=Mean change in lens diameter of each Test sample group−Mean change in lens diameter of Vehicle control group (Equation 2)

[2] = system: anterior segment of the eye; assay: Ocular Irritation Test-1: modified Draize test and slit lamp examination; assay type: in vivo, Japanese White rabbit; parameters: key to Irritation Score of anterior segment of the eye: Palpebral conjunctival edema / Irritation Score of anterior segment of the eye: Bulbar conjunctival hyperemia / Irritation Score of anterior segment of the eye: Hyperemia of nictitating membrane / Irritation Score of anterior segment of the eye: Discharge / Slit lamp observation / Irritation Score of anterior segment of the eye: Flare of palpebral conjunctiva: +0.5: very slight; +1: slight; +2: moderate; +3: severe; —: No noteworthy findings; settings: for slit lamp examination / irritation in anterior segment of the eye: 0.03% and 0.3% eye drops; for irritation in anterior segment of the eye: modified Draize test; for Irritation Score of anterior segment of the eye: Bulbar conjunctival hyperemia / Irritation Score of anterior segment of the eye: Discharge / Irritation Score of anterior segment of the eye: Flare of palpebral conjunctiva / Irritation Score of anterior segment of the eye: Hyperemia of nictitating membrane / Irritation Score of anterior segment of the eye: Palpebral conjunctival edema / Slit lamp observation: 50 μL/eye ten times at 30 minute intervals, 1 hour after last instillation
Method: 0.03% (w/v) and 0.3% (w/v) Compound 1 eye drops, and 0.03% (w/v) and 0.3% (w/v) Compound 3 eye drops were prepared in the same manner as Preparation of Test sample in Pharmacological test-2. Vehicle A was used for a vehicle group. 0.03% (w/v) and 0.3% (w/v) Compound 1 eye drops, 0.03% (w/v) and 0.3% (w/v) Compound 3 eye drops, and the vehicle were each instilled into the left eye of a Japanese White rabbit at a dose of 50 μL/eye with pipette ten times at 30 minute intervals. One hour after the final instillation, ocular irritation of anterior segment of the eye was evaluated according to the modified Draize test, and a slit lamp examination was performed. The contralateral eye was untreated. The ocular irritation of anterior segment of the eye was scored according to the following criteria: +0.5: very slight; +1: slight; +2: moderate; +3: severe

## CC(C)=CCOC(=O)CCCC[C@@H]1CCSS1 [Compound 1, 3-Methyl-2-buten-1-yl (R)-5-(1,2-dithiolan-3-yl)pentanoate]
[1]; 0.03% eye drop
  Histopathological examination of the eye: —
  Irritation Score of anterior segment of the eye: Angiogenesis: —
  Irritation Score of anterior segment of the eye: Anterior chamber flare: —
  Irritation Score of anterior segment of the eye: Conjunctival edema: —
  Irritation Score of anterior segment of the eye: Conjunctival hyperemia: —
  Irritation Score of anterior segment of the eye: Corneal epithelial disorder: —
  Irritation Score of anterior segment of the eye: Corneal opacity: —
  Irritation Score of anterior segment of the eye: Discharge: —
  Irritation Score of anterior segment of the eye: Iris: —
  Irritation Score of anterior segment of the eye: Light reflex: —
  Lens: —
[1]; 0.03%, 0.1% and 0.3% eye drops, twice per day for 2 weeks
  ocular irritation: No ocular irritation was observed
[1]; 0.1% eye drop
  Histopathological examination of the eye: —
  Irritation Score of anterior segment of the eye: Angiogenesis: —
  Irritation Score of anterior segment of the eye: Anterior chamber flare: —
  Irritation Score of anterior segment of the eye: Conjunctival edema: —
  Irritation Score of anterior segment of the eye: Conjunctival hyperemia: —
  Irritation Score of anterior segment of the eye: Corneal epithelial disorder: —
  Irritation Score of anterior segment of the eye: Corneal opacity: —
  Irritation Score of anterior segment of the eye: Discharge: —
  Irritation Score of anterior segment of the eye: Iris: —
  Irritation Score of anterior segment of the eye: Light reflex: —
  Lens: —
[1]; 0.3% eye drop
  Histopathological examination of the eye: —
  Irritation Score of anterior segment of the eye: Angiogenesis: —
  Irritation Score of anterior segment of the eye: Anterior chamber flare: —
  Irritation Score of anterior segment of the eye: Conjunctival edema: —
  Irritation Score of anterior segment of the eye: Conjunctival hyperemia: —
  Irritation Score of anterior segment of the eye: Corneal epithelial disorder: —
  Irritation Score of anterior segment of the eye: Corneal opacity: —
  Irritation Score of anterior segment of the eye: Discharge: —
  Irritation Score of anterior segment of the eye: Iris: —
  Irritation Score of anterior segment of the eye: Light reflex: —
  Lens: —
Lens elasticity; 0.01% (w/v) emulsion
  Lens elasticity improvement: 12.2 μm
Lens elasticity; 0.03% (w/v) emulsion
  Lens elasticity improvement: 33.8 μm
Lens elasticity; 0.03%, 0.1% and 0.3% sample groups, instilled once-daily
  lens elasticity improvement compared with 1.5% EV06 group: excellent results compared to 1.5% EV06 group
Lens elasticity; 0.1% (w/v) emulsion
  Lens elasticity improvement: 34.1 μm
Lens elasticity; 0.3% (w/v) emulsion
  Lens elasticity improvement: 39.8 μm
[2]
  slit lamp examination: No abnormalities were observed
  irritation in anterior segment of the eye: No irritation was observed
[2]; 0.03% eye drop
  Irritation Score of anterior segment of the eye: Bulbar conjunctival hyperemia: —
  Irritation Score of anterior segment of the eye: Discharge: —
  Irritation Score of anterior segment of the eye: Flare of palpebral conjunctiva: —
  Irritation Score of anterior segment of the eye: Hyperemia of nictitating membrane: —
  Irritation Score of anterior segment of the eye: Palpebral conjunctival edema: —
  Slit lamp observation: —
[2]; 0.3% eye drop
  Irritation Score of anterior segment of the eye: Bulbar conjunctival hyperemia: —
  Irritation Score of anterior segment of the eye: Discharge: —
  Irritation Score of anterior segment of the eye: Flare of palpebral conjunctiva: —
  Irritation Score of anterior segment of the eye: Hyperemia of nictitating membrane: —
  Irritation Score of anterior segment of the eye: Palpebral conjunctival edema: —
  Slit lamp observation: —

## O=C(CCCC[C@@H]1CCSS1)OCCN1CCN(CCO)CC1 [Compound 3]
[2]
  slit lamp examination: No abnormalities were observed
  irritation in anterior segment of the eye: low
[2]; 0.03% eye drop
  Irritation Score of anterior segment of the eye: Bulbar conjunctival hyperemia: +1
  Irritation Score of anterior segment of the eye: Discharge: +1
  Irritation Score of anterior segment of the eye: Flare of palpebral conjunctiva: +1
  Irritation Score of anterior segment of the eye: Hyperemia of nictitating membrane: +1
  Irritation Score of anterior segment of the eye: Palpebral conjunctival edema: +0.5
  Slit lamp observation: —
[2]; 0.3% eye drop
  Irritation Score of anterior segment of the eye: Bulbar conjunctival hyperemia: +1 and +2
  Irritation Score of anterior segment of the eye: Discharge: +1
  Irritation Score of anterior segment of the eye: Flare of palpebral conjunctiva: +1
  Irritation Score of anterior segment of the eye: Hyperemia of nictitating membrane: +1
  Irritation Score of anterior segment of the eye: Palpebral conjunctival edema: +1 and +0.5
  Slit lamp observation: —

## C[N+](C)(C)CCOC(=O)CCCC[C@@H]1CCSS1.[Cl-] [EV06, Lipoic acid choline ester, reference compound]
Lens elasticity; 1.5% (w/v) solution in Vehicle A
  Lens elasticity improvement: 5.8 μm

— US20220151989A1, “LIPOIC ACID PRODRUG” (SANTEN PHARMACEUTICAL CO., LTD., priority 2019, published 2022)
